Patent US8992933B2, “Methods for activating T cells and modulating an immune response” (New York University, priority 2011, dated 2015)

Assays:
Format in all cases: cell-based, human
[1] = system: Klf2; assay: Klf2 mRNA by RT-qPCR in TM cells; details: IL-2 medium 2 weeks, inhibitor for 2 days
Procedure: Peripheral Blood Mononuclear Cells (PBMCs) from healthy individuals (New York Blood Center, New York, N.Y.) were prepared using Ficoll-paque plus (GE Amersham, Uppsala, Sweden). Whole blood samples from rheumatoid arthritis patients were purchased from Bioreclamation (New York, N.Y.) and were processed similar to healthy donor blood. All healthy donor and patient samples were consented prior to purchase, were none-identifiable and approved by institutional human subjects board. CD4^+ T cells were isolated using Dynal CD4 Positive Isolation Kit (Invitrogen, Carlsbad, Calif.) directly from purified PBMCs and were >99% pure. […] TM cells were activated either by anti-CD3 and anti-CD28 (aCD3/aCD28) coated beads (1:4 beads:cells ratio) for 18-24 hours, or by Phorbol 12-myristate 13-acetate (PMA) and ionomycin for 4 hours and further FACS sorted based on CCR6 and IL-17 expression into CCR6^− IL-17^−, CCR6^+IL-17^+, or CCR6^+IL-17^− subsets (as determined by secretion assay labeling, see below). […]
Purified T cells (1×10^5) were snap frozen in liquid nitrogen for total RNA isolation. […] The extracted RNA was then reverse transcribed into cDNA and quantified using Taqman Cell to CT kit (Applied Biosystems, Carlsbad, Calif.). […] Data was acquired and analyzed on ABI 7500 sequence detection system. […]

[2] = system: CCR6+ TM cells; assay: PI-3K/Akt inhibitor treatment of IL-7-cultured CCR6+ TM cells, cytokine production after PMA and ionomycin
Procedure: Peripheral Blood Mononuclear Cells (PBMCs) from healthy individuals (New York Blood Center, New York, N.Y.) were prepared using Ficoll-paque plus (GE Amersham, Uppsala, Sweden). […] All healthy donor and patient samples were consented prior to purchase, were none-identifiable and approved by institutional human subjects board. CD4^+ T cells were isolated using Dynal CD4 Positive Isolation Kit (Invitrogen, Carlsbad, Calif.) directly from purified PBMCs and were >99% pure. CD4^+ T cells were sorted by FACS ARIA cell sorter (BD, San Jose, Calif.) into CD45RO^+ CD25^− memory T (TM) cells. TM cells were activated either by anti-CD3 and anti-CD28 (aCD3/aCD28) coated beads (1:4 beads:cells ratio) for 18-24 hours, or by Phorbol 12-myristate 13-acetate (PMA) and ionomycin for 4 hours and further FACS sorted based on CCR6 and IL-17 expression into CCR6^− IL-17^−, CCR6^+IL-17^+, or CCR6^+IL-17^− subsets (as determined by secretion assay labeling, see below). Sorted cells (>99% pure) were cultured in serum-free Xvivo-15 medium (Lonza, Wakersville, Md.) at 37° C. and 5% CO2 for 6-7 days prior to restimulation with PMA and ionomycin (see below). Culture conditions included: 10 U/mL recombinant human IL-2, (BD Biosciences, San Jose, Calif.), 20 ng/mL IL-7, 20 ng/mL IL-15, or 20 ng/mL IL-23 (all from R&D Systems, Minneapolis, Minn.). […] In the experiments using PI-3K signaling inhibitors, cells were treated with PI-3K specific inhibitor, LY294002 (EMD, Gibbstown, N.J.), or Akt specific inhibitor, AKTi-1/2 (EMD), for 2 days before PMA and Ionomycin restimulation.
Cells were stained as previously described (Oswald-Richter, et al., PLoS Pathogens 2007; 3: e58). For intracellular staining, T cell cultures were stimulated for 5 hours at 37° C. with PMA and Ionomycin and Golgistop (BD Biosciences). Stimulated cells were washed with PBS and stained with Fixable Viability Dye eFluor450 (eBioscience) to gate on live cells. Cells were then fixed and permeabilized by commercially available Foxp3 intracellular staining kit (eBioscience) or cytofix/cytoperm kit (BD Biosciences) as per manufacturer's protocol. Antibodies used for surface and intracellular staining included: CD45RO-FITC; CD25-PE; IFN-γ-FITC (clone 4S. B3), PE Cy7 or A700; IL-4-APC or PE; IL-17A (IL-17)-Pacific Blue (Clone BL168), FITC or Percp Cy5.5; IL-10-APC (Biolegend); IL-22-PE (R&D) or APC (eBioscience); IL-21-PE (clone 22URT1, eBioscience); FOXO1 rabbit monoclonal antibody; phospho-AKT (Ser473)-Alexa Fluor 488; Rabbit IgG isotype control-Alexa Fluor 488 (Cell Signaling, Danvers, Mass.); and CCR6-biotin (BD Biosciences). Secondary antibodies used were: Streptavidin-APC or PercpCy5.5 (BD Biosciences), Goat anti mouse-APC (BD Biosciences), anti rabbit-Alexa 647 (Molecular Probes). […]

[3] = system: TM cells; assay: Cell viability under PI-3K/Akt inhibitor treatment; details: 1-10 μg/mL
Procedure: (§1) Cells were stained as previously described (Oswald-Richter, et al., PLoS Pathogens 2007; 3: e58). For intracellular staining, T cell cultures were stimulated for 5 hours at 37° C. with PMA and Ionomycin and Golgistop (BD Biosciences). Stimulated cells were washed with PBS and stained with Fixable Viability Dye eFluor450 (eBioscience) to gate on live cells. Cells were then fixed and permeabilized by commercially available Foxp3 intracellular staining kit (eBioscience) or cytofix/cytoperm kit (BD Biosciences) as per manufacturer's protocol. Antibodies used for surface and intracellular staining included: CD45RO-[…]3), PE Cy7 or A700; […] IL-17A (IL-17)-Pacific Blue (Clone BL168), FITC or Percp Cy5.5; […]) or APC (eBioscience); […] FOXO1 rabbit monoclonal antibody; phospho-AKT ([…])-Alexa Fluor 488; Rabbit IgG isotype control-Alexa Fluor 488 (Cell Signaling, Danvers, Mass.); and CCR6-biotin (BD Biosciences). Secondary antibodies used were: Streptavidin-APC or […]5.5 (BD Biosciences), Goat anti mouse-APC (BD Biosciences), anti rabbit-Alexa 647 (Molecular Probes). All data were acquired on LSRII instrument (BD Biosciences) using FACSDiva software. Data analyses were done using Flowjo software (Treestar Inc, Ashland, Oreg.). For phospho-Akt staining, Jurkat cells were fixed with BD Cytofix buffer (BD Biosciences) pre-warmed to 37° C. for 10 minutes. […]

[4] = system: Rorc and Foxp3; assay: Rorc and Foxp3 mRNA by RT-qPCR in CCR6+/- cells; details: IL-7 medium 7 days, then inhibitor for 2 days
Procedure: Peripheral Blood Mononuclear Cells (PBMCs) from healthy individuals (New York Blood Center, New York, N.Y.) were prepared using Ficoll-paque plus (GE Amersham, Uppsala, Sweden). Whole blood samples from rheumatoid arthritis patients were purchased from Bioreclamation (New York, N.Y.) and were processed similar to healthy donor blood. All healthy donor and patient samples were consented prior to purchase, were none-identifiable and approved by institutional human subjects board. […] Sorted cells (>99% pure) were cultured in serum-free Xvivo-15 medium (Lonza, Wakersville, Md.) at 37° C. and 5% CO2 for 6-7 days prior to restimulation with PMA and ionomycin (see below). […]). […] In the experiments using PI-3K signaling inhibitors, cells were treated with PI-3K specific inhibitor, LY294002 (EMD, Gibbstown, N.J.), or Akt specific inhibitor, AKTi-1/2 (EMD), for 2 days before PMA and Ionomycin restimulation. Purified T cells (1×10^5) were snap frozen in liquid nitrogen for total RNA isolation. […] The extracted RNA was then reverse transcribed into cDNA and quantified using Taqman Cell to CT kit (Applied Biosystems, Carlsbad, Calif.). […] Data was acquired and analyzed on ABI 7500 sequence detection system. Quantitative real-time PCR data was analyzed by normalizing Ct values of genes of interest to the Ct values of the housekeeping gene b-Actin.

[5] = system: Akt phosphorylation; assay: Intracellular phospho-Akt (Ser473) staining
Procedure: as §1

[6] = one week in IL-7, then inhibitor for 48 hours

Structure (SMILES): O=c1[nH]c2ccccc2n1C1CCN(Cc2ccc(-c3nc4cc5nc[nH]c5cc4nc3-c3ccccc3)cc2)CC1 [AKTi-1/2]
- Klf2 message expression in aCD3/aCD28-activated CCR6+ TM cells expanded in IL-2 [1]: upregulates
- IL-17 and IL-22 production induced by IL-7 from CCR6+ TM cells ([2]; 5 μg/ml, Day 10): suppresses
- expression of IFNγ [2, 6]: not affected
- expression of IL-4 [2, 6]: less reduced
- γc-mediated IL-17/IL-22 induction ([2]; one week in IL-7, then inhibitor for 48 hours, dose-dependent): repressed
- cell viability [3]: without adversely affecting cell viability
- Rorc and Foxp3 transcripts [4]: not affected
- Akt phosphorylation (Ser473) in Jurkat cells ([5]; Jurkat T cells treated for 30 minutes): Inhibition of Akt phosphorylation
- cytokine-dependent phosphorylation of Akt ([5]; TM cells, 1-10 μg/mL): downregulated
